Assay results: article PMC9877316, “Identification of a novel P2X7 antagonist using structure-based virtual screening” (Frontiers in Pharmacology, 2023)

Columns and labels:
[1] = target: T1, human P2X4 (Homo sapiens, UniProt Q99571); experiment: Fluo-4 ATP-induced calcium influx assay; type: cell-based; settings: 10 µM compound; 1.2 µM ATP; 1321N1 cells
T1 construct: expressed in transfected cells
T1 sequence (Q99571 1-388): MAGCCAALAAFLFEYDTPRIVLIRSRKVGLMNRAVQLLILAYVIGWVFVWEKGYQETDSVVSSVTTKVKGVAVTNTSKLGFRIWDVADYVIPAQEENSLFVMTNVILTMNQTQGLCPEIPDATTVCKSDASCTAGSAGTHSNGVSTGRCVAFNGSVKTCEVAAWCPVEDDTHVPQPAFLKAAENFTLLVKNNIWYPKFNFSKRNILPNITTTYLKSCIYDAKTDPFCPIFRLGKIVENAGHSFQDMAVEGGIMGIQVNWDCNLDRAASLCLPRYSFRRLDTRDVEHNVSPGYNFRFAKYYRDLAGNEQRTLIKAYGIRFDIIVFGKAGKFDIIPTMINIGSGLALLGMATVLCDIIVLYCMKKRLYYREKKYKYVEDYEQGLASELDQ
Procedure: 1321N1 astrocytoma cells and HEK-293 cells were cultured (at 37°C, 5% CO2) in Dulbecco’s modified Eagle’s medium (DMEM/F-12 with Glutamax) supplemented with 10% foetal bovine serum (FBS) and 200 unit/ml of penicillin and streptomycin antibiotics (Fisher Scientific). […]
Cells were plated the day before assay into poly-lysine-coated 96-well plates at 40–65,000 cells/ml. […] A Fluoroskan Ascent FL plate reader (Fisher Scientific) equipped with a solution dispenser and an appropriate filter pair (excitation: 485 nm, emission: 538 nm) was used to record 5 s baseline followed by P2X4-mediated calcium influx measurements for 20–25 s after ATP stimulation (20 μL injection of solutions dissolved in modified Ringer’s buffer).
The antagonist activity of the 17 compounds (applied at 10 µM) was assayed initially on 1321N1 astrocytoma cells stably expressing human P2X4 receptors by measuring the ATP-induced (applied at 1.2 µM) increase in Fluo-4 fluorescence due to calcium influx via P2X4, using 2 µM BX430 as a positive control (Figure 1A). […] The ATP-induced rate of uptake of YoPro-1 dye was measured upon application of at 300 µM ATP, using .1 µM A740003 as a positive control (Figure 1B).

[2] = target: T2, rat P2X7-GFP (Rattus norvegicus, UniProt Q64663); experiment: Whole-cell patch clamp electrophysiology; type: cell-based
T2 construct: expressed in transfected cells; host or cells: HEK-293 cells stably expressing rat P2X7-GFP (patch clamp)
T2 sequence (Q64663 1-595): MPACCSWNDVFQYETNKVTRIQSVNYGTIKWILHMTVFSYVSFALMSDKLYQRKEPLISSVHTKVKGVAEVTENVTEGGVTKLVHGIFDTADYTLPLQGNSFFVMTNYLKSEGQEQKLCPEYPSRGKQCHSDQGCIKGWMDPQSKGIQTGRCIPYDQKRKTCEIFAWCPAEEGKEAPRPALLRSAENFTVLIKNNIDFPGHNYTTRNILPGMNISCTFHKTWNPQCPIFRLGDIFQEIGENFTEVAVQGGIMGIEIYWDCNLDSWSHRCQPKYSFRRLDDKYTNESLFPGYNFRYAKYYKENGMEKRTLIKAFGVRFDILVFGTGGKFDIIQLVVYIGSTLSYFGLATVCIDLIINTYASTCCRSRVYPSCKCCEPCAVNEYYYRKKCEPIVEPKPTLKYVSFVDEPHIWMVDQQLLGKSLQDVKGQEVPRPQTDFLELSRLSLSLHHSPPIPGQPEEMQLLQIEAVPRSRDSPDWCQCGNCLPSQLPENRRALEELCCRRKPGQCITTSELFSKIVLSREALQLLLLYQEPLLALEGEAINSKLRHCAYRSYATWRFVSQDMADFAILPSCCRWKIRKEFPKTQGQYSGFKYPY
Procedure: Whole-cell patch-clamp traces were recorded at room temperature using patch pipettes pulled from borosilicate glass (World Precision Instruments, Sarasota, FL, United States). Pipettes were filled with internal solution (IS) containing (in mM): 145 NaCl, 10 EGTA and 10 HEPES, with the pH adjusted to 7.3 with NaOH and had resistances of 3–5 MΩ. Cells were constantly perfused in a bath with ECS-LD. Currents were recorded at a holding membrane potential of −60 mV using an Axon Instruments Axopatch Multiclamp 700A amplifier and Digidata 1322A A/D interface (Molecular Devices, Sunnyvale, CA, United States). […] ATP applications were made at 90-s intervals. Solutions were applied to patch-clamped cells with the help of a rapid perfusion system (RSC-160, Biologic, Claix, France), allowing solution exchange times in the range […].
In order to confirm GP-25 as a competitive (orthosteric) antagonist, BzATP concentration-response curves (ranging between 300 μM and .03 µM) were constructed for rat P2X7-GFP in the YoPro-1 uptake assay in the presence of increasing concentrations of GP-25 (Figure 3A).

antagonist activity at human P2X4 [1]: no activity | reduction in P2X7 activity at 25 µM ([2]; 25 µM compound, patch clamp): statistically significant reduction | inhibition of ATP-evoked currents ([2]; GP-25 pre-applied for 2 min, 300 µM ATP, HEK-293 cells): concentration-dependent inhibition
Structure (SMILES): COC(=O)C1=C(C)NC2=C(C(=O)c3ccccc32)C1c1cc(Br)ccc1OCC(=O)O (stereo not drawn) [Compound 9, (4-bromo-2-(3-(methoxycarbonyl)-2-methyl-5-oxo-4,5-dihydro-1H-indeno(1,2-b)pyridine-4-yl)phenoxy)acetic acid]
